PubChem BioAssay AID248 (DTP/NCI, 2004)
Values joined by “and” are separate entries in the source; they are usually repeats but may differ in a detail not shown here. Equal entries are not always repeated. Inconclusive results and toxic doses are left out. Cut-off read from the data, not from the text of the source: active = T/C of 150% or more; inactive = T/C below 125%.

System: L1210 leukemia ip in BDF1 mice, survival T/C
Test: NCI In Vivo Anticancer Drug Screen. Data for tumor model L1210 Leukemia (intraperitoneal) in B6D2F1 (BDF1) mice
Details: endpoint: mean survival time, higher = longer survival
Procedure, shortened: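 Each compound was tested against a transplantable tumor grown in mice. The endpoint was survival, with treated animals benchmarked against vehicle controls as a simple ratio.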

[1] = dose: 100.0 mg/kg/injection, schedule: Q01DX009 (ip), vehicle: Klucel (hydroxypropylcellulose) (HPC)
[2] = dose: 100.0 mg/kg/injection, schedule: Q04DX003 (ip), vehicle: Klucel (hydroxypropylcellulose) (HPC)
[3] = dose: 200.0 mg/kg/injection, schedule: Q01DX009 (ip), vehicle: Klucel (hydroxypropylcellulose) (HPC)
[4] = dose: 200.0 mg/kg/injection, schedule: Q04DX003 (ip), vehicle: Klucel (hydroxypropylcellulose) (HPC)
[5] = dose: 400.0 mg/kg/injection, schedule: Q01DX009 (ip), vehicle: Klucel (hydroxypropylcellulose) (HPC)
[6] = dose: 50.0 mg/kg/injection, schedule: Q01DX009 (ip), vehicle: Klucel (hydroxypropylcellulose) (HPC)
[7] = dose: 100.0 mg/kg/injection, schedule: Q04DX002 (ip), vehicle: Klucel (hydroxypropylcellulose) (HPC)
[8] = dose: 100.0 mg/kg/injection, schedule: Q04DX003 (ip), vehicle: saline with Tween-80
[9] = dose: 200.0 mg/kg/injection, schedule: Q04DX002 (ip), vehicle: Klucel (hydroxypropylcellulose) (HPC)
[10] = dose: 200.0 mg/kg/injection, schedule: Q04DX003 (ip), vehicle: saline with Tween-80
[11] = dose: 400.0 mg/kg/injection, schedule: Q04DX002 (ip), vehicle: Klucel (hydroxypropylcellulose) (HPC)

Measured: T/C

O=C(O)C(=O)C(Cl)Br (stereo unspecified)
inactive: dose: 12.5 mg/kg/injection, schedule: Q01DX001 (ip), vehicle: saline 111 % of control | dose: 25.0 mg/kg/injection, schedule: Q01DX001 (ip), vehicle: saline 118 % of control | dose: 50.0 mg/kg/injection, schedule: Q01DX001 (ip), vehicle: saline 111 % of control

CS(=O)(=O)OCC1CCCCO1 (stereo unspecified)
inactive: [1] 91 % of control | [2] 101 % of control | [3] 102 % of control | [4] 102 % of control | [5] 106 % of control | dose: 400.0 mg/kg/injection, schedule: Q04DX003 (ip), vehicle: Klucel (hydroxypropylcellulose) (HPC) 111 % of control

C=CC1CN2CCC1CC2C(O)c1ccnc2ccc(OC)cc12 (stereo unspecified) (tested in a mixture with another compound)
inactive: [6] 97 % of control and 95 % of control | dose: 50.0 mg/kg/injection, schedule: Q01DX009 (ip), vehicle: saline with Tween-80 95 % of control | dose: 50.0 mg/kg/injection, schedule: Q04DX003 (ip), vehicle: other 95 % of control | dose: 75.0 mg/kg/injection, schedule: Q01DX001 (ip), vehicle: saline 100 % of control and 99 % of control | dose: 100.0 mg/kg/injection, schedule: Q01DX001 (ip), vehicle: carboxymethylcellulose (CMC) 98 % of control | dose: 100.0 mg/kg/injection, schedule: Q01DX001 (ip), vehicle: saline with Tween-80 96 % of control | [1] 97 % of control and 104 % of control | dose: 100.0 mg/kg/injection, schedule: Q01DX009 (ip), vehicle: saline with Tween-80 95 % of control | [7] 107 % of control | [2] 93 % of control | dose: 100.0 mg/kg/injection, schedule: Q04DX003 (ip), vehicle: other 103 % of control | [8] 103 % of control | dose: 100.0 mg/kg/injection, schedule: Q04DX003 (ip), vehicle: saline 102 % of control | dose: 150.0 mg/kg/injection, schedule: Q01DX001 (ip), vehicle: saline 86 % of control and 99 % of control | dose: 200.0 mg/kg/injection, schedule: Q01DX001 (ip), vehicle: carboxymethylcellulose (CMC) 102 % of control | dose: 200.0 mg/kg/injection, schedule: Q01DX001 (ip), vehicle: saline with Tween-80 96 % of control | [3] 97 % of control | dose: 200.0 mg/kg/injection, schedule: Q01DX009 (ip), vehicle: saline with Tween-80 101 % of control | [9] 96 % of control | [4] 93 % of control | dose: 200.0 mg/kg/injection, schedule: Q04DX003 (ip), vehicle: other 93 % of control | [10] 87 % of control | dose: 200.0 mg/kg/injection, schedule: Q04DX003 (ip), vehicle: saline 96 % of control | dose: 300.0 mg/kg/injection, schedule: Q01DX001 (ip), vehicle: saline 89 % of control and 91 % of control | dose: 400.0 mg/kg/injection, schedule: Q01DX001 (ip), vehicle: carboxymethylcellulose (CMC) 93 % of control | dose: 400.0 mg/kg/injection, schedule: Q01DX001 (ip), vehicle: saline with Tween-80 93 % of control | [11] 100 % of control

N#Cc1c(O)ccc(O)c1C#N
inactive: [1] 87 % of control | [7] 90 % of control | [3] 87 % of control | [9] 93 % of control | [5] 94 % of control | [11] 96 % of control

O=c1cc(-c2ccccc2)nc(SCc2ccccc2Cl)[nH]1
inactive: dose: 25.0 mg/kg/injection, schedule: Q01DX Z (ip), vehicle: methylcellulose (MC) 94 % of control

NC(Cc1ccccc1Cl)C(=O)O (stereo unspecified)
inactive: [6] 102 % of control | dose: 75.0 mg/kg/injection, schedule: Q01DX001 (ip), vehicle: Klucel (hydroxypropylcellulose) (HPC) 86 % of control | [1] 102 % of control | dose: 150.0 mg/kg/injection, schedule: Q01DX001 (ip), vehicle: Klucel (hydroxypropylcellulose) (HPC) 99 % of control | [3] 102 % of control | dose: 300.0 mg/kg/injection, schedule: Q01DX001 (ip), vehicle: Klucel (hydroxypropylcellulose) (HPC) 96 % of control

Cc1ccc(NC(=O)c2ccc(C(=O)Nc3ccc(C)cc3)cc2)cc1
inactive: dose: 56.0 mg/kg/injection, schedule: Q01DX Z (ip), vehicle: carboxymethylcellulose (CMC) 88 % of control | dose: 225.0 mg/kg/injection, schedule: Q01DX Z (ip), vehicle: carboxymethylcellulose (CMC) 92 % of control

CCOC(=O)C(C(C)=O)C(c1ccccc1)C(C(C)=O)C(=O)OCC (stereo unspecified)
inactive: dose: 25.6 mg/kg/injection, schedule: Q04DX002 (ip), vehicle: saline with Tween-80 97 % of control | dose: 64.0 mg/kg/injection, schedule: Q04DX002 (ip), vehicle: saline with Tween-80 104 % of control | [8] 101 % of control | dose: 160.0 mg/kg/injection, schedule: Q04DX002 (ip), vehicle: saline with Tween-80 112 % of control | [10] 98 % of control | dose: 400.0 mg/kg/injection, schedule: Q04DX002 (ip), vehicle: saline with Tween-80 104 % of control | dose: 400.0 mg/kg/injection, schedule: Q04DX003 (ip), vehicle: saline with Tween-80 93 % of control

COc1ccc(Cl)cc1NC(=O)C(Br)C(Br)C(=O)O (stereo unspecified)
inactive: dose: 100.0 mg/kg/injection, schedule: Q01DX009 (ip), vehicle: other 96 % of control | dose: 200.0 mg/kg/injection, schedule: Q01DX009 (ip), vehicle: other 100 % of control

O=C1C=CC(=O)N1CCCCCCCCCCN1C(=O)C=CC1=O
inactive: dose: 1.0 mg/kg/injection, schedule: Q01DX Z (ip), vehicle: methylcellulose (MC) 94 % of control | dose: 1.4 mg/kg/injection, schedule: Q01DX Z (ip), vehicle: methylcellulose (MC) 96 % of control | dose: 2.2 mg/kg/injection, schedule: Q01DX Z (ip), vehicle: methylcellulose (MC) 90 % of control

Nc1[nH]c(=O)ncc1-c1cccc(Cl)c1
inactive: dose: 12.5 mg/kg/injection, schedule: Q01DX009 (ip), vehicle: Klucel (hydroxypropylcellulose) (HPC) 103 % of control | dose: 25.0 mg/kg/injection, schedule: Q01DX009 (ip), vehicle: Klucel (hydroxypropylcellulose) (HPC) 95 % of control | [6] 100 % of control and 103 % of control

Nn1c(-c2cccc(O)c2)nnc1-c1cccc(O)c1
inactive: dose: 100.0 mg/kg/injection, schedule: Q01DX001 (ip), vehicle: saline 104 % of control | dose: 200.0 mg/kg/injection, schedule: Q01DX001 (ip), vehicle: saline 95 % of control | dose: 400.0 mg/kg/injection, schedule: Q01DX001 (ip), vehicle: saline 101 % of control

CCCCCCCCCCCC(=O)Nc1ccc(N(C)C(C)=O)cc1
inactive: [1] 90 % of control | [7] 89 % of control | [3] 95 % of control | [9] 100 % of control | [5] 97 % of control | [11] 100 % of control

C[n+]1ccc2cc(N)c3c4ccccc4sc3c2c1
inactive: dose: 1.56 mg/kg/injection, schedule: Q01DX009 (ip), vehicle: saline with Tween-80 110 % of control | dose: 3.12 mg/kg/injection, schedule: Q01DX009 (ip), vehicle: saline with Tween-80 100 % of control | dose: 6.25 mg/kg/injection, schedule: Q01DX009 (ip), vehicle: saline with Tween-80 105 % of control | dose: 12.5 mg/kg/injection, schedule: Q04DX003 (ip), vehicle: saline with Tween-80 105 % of control | dose: 25.0 mg/kg/injection, schedule: Q04DX003 (ip), vehicle: saline with Tween-80 105 % of control | dose: 50.0 mg/kg/injection, schedule: Q04DX003 (ip), vehicle: saline with Tween-80 115 % of control
